Source: publication PMC8794255, “Small molecule inhibitor of Igf2bp1 represses Kras and a pro-oncogenic phenotype in cancer cells” (RNA Biology, 2021)
“And” between values parts separate entries of the source, which are not always exact repeats. Equal values may be shown once.

Columns and labels:
HEK293 cells = assay: Cell proliferation assay (Incucyte), HEK293; format: cell-based, human; conditions: HEK293, up to 20 μM
Protocol: ES2, H1299 and HEK293 cells were seeded in a 96 well plate (5X10^3 cells per well) for 24 hours before adding the compound at increasing concentrations. After an additional 24 hours, the plate was incubated in an IncuCyte® S3 Live-Cell Analysis System (Essen BioScience). The wells were filmed for 72 hours, and then analysed for proliferation rate Using IncuCyte® S3 Live-Cell Analysis System (Essen BioScience)

Igf2bp1 KH34 di-domain = molecular target: T1, Igf2bp1 KH34 di-domain (Homo sapiens, UniProt Q9NZI8); assay: MST, Igf2bp1 KH34 di-domain; conditions: read-out: KD of binding to KH34
T1 construct: Human Igf2bp1 di-domains RRM12 (M1-P188) and KH34 (P387-A574); 6xHis (N, cleaved yes); made in house; host or cells: E. coli BL21(DE3)
Protocol: Recombinant full-length Igf2bp1 protein was labelled with RED-tris-NTA dye using a Monolith NT His-Tag Labelling Kit (NanoTemper) while RRM12, KH12 and KH34 di-domain peptides were labelled using the Protein Labelling Kit RED NHS 2nd generation (NanoTemper). Labelled proteins were spun at 15,000 g for 5 min to eliminate aggregates. All samples were 2X labelled protein mix of Igf2bp1 (200 nM) in PBST and were combined (1:1) with serial dilutions of compound or Kras6 RNA in binding buffer (10mMTris pH = 7.5, 100 mM NaCl, 0.1 mM EDTA, 0.06% IPEGAL, 0.02 μg/μL tRNA, 2 mM DTT, 0.1 μg/μL heparin) in final volume of 20 μL, room temperature for 15 min. Samples were then loaded into standard capillaries (NanoTemper) and read in the Monolith NT.115 scanner (NanoTemper) using the red filter with reading conditions of 95% LED power and 40% MST power, 5 sec fluorescence before, 30 sec MST on, 5 sec fluorescence after and 25 sec delay between samples. Results were analysed using the MO Control software (NanoTemper) for curve fitting to KD.
The open reading frame of Igf2bps were cloned into the pET-21(d) plasmid (Novagen) between the Nco1 and Xho1 sites, as previously described. […]

H1299 cells = assay: Wound healing (cell migration) assay, H1299; format: cell-based, human
Protocol: Cells were seeded in 96 IncuCyte® ImageLock plates (20X10^3 cells per well) for 24 hours, to a near confluency of 95%, before the addition of increasing concentrations of compound. After a further 24 hours, wells were scratched using the IncuCyte® 96-well WoundMaker Tool, and the cells cultured for an additional 48 hours using the IncuCyte® S3 Live-Cell Analysis System (Essen BioScience). The plate was imaged at increments of 120 minutes for a period of 48 hours, and then analysed for relative wound healing.

Igf2bp2 = molecular target: T2, Igf2bp2 (Homo sapiens, UniProt Q9Y6M1); assay: MST, Igf2bp2; format: binding
T2 construct: made in house
T2 sequence (Q9Y6M1 whole entry, species assumed): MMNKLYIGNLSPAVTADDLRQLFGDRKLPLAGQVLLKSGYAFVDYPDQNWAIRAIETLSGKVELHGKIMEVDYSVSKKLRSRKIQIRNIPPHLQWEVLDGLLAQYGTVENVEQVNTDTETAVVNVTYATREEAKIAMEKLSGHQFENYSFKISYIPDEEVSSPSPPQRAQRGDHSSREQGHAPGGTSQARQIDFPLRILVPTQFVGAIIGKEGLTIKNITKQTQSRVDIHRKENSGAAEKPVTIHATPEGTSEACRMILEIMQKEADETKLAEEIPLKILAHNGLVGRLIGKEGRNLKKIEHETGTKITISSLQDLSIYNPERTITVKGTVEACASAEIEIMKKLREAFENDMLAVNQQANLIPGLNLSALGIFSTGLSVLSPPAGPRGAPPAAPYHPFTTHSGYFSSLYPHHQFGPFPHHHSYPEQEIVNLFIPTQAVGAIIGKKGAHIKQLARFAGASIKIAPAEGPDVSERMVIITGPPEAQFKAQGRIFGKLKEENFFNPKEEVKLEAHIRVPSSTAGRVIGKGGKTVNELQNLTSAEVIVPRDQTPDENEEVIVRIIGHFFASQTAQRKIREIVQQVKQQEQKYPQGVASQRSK

T1 sequence (Q9NZI8 387-574): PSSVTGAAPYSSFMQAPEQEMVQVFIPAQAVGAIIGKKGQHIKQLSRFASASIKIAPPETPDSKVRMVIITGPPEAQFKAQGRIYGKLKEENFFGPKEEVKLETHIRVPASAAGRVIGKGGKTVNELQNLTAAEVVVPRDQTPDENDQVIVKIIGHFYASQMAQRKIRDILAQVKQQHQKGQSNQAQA

- Kd (Igf2bp1 KH34 di-domain): 7.1 µM and 7.2 µM
- Kd (Igf2bp2; IGF2BP2 50nM, read-out: KD of binding to Igf2bp2): > 150 µM
- Binding to Igf2bp2 (Igf2bp2; even at concentrations that almost saturate binding to Igf2bp1): did not significantly bind
SMILES: O=C(c1ccc(Cn2cnnn2)cc1)N1CCCC(Nc2ccc3c(c2)OCO3)C1 (stereo not drawn) [compound 7773]
- Cell proliferation (HEK293 cells): remarkably unaffected
- Wound healing (H1299 cells; H1299, 20 μM): strongly inhibited
- Wound healing (H1299 cells; H1299, lowest concentration 5 μM): discernible inhibition
